Target: T1, bovine serum albumin (BSA) (Bos taurus, UniProt P02769)
T1 construct: gene ALB
Experiment: intrinsic fluorescence quenching (double-log Stern-Volmer, binding constant K at […] K); supported by UV absorption, CD and warfarin probe displacement
Conditions: read-out: K (10^4 L.mol^- 1) (converted)

T1 sequence (P02769 25-607): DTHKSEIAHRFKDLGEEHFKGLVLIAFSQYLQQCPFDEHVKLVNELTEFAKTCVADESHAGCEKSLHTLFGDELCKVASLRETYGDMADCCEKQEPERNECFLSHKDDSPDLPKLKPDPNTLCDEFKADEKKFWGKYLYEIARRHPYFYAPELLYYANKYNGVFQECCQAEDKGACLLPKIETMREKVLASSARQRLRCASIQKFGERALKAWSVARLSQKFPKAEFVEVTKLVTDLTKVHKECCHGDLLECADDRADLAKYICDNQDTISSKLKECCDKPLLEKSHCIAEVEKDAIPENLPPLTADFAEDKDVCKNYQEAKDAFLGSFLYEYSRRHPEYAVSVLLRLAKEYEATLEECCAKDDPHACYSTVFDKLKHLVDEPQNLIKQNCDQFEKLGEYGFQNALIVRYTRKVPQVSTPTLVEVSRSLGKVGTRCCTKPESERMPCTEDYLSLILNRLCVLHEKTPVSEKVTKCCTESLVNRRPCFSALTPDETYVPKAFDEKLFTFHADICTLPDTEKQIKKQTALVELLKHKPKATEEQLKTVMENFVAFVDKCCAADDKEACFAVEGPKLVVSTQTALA

Kd: 47.8 µM
SMILES: CCOC(=O)C1=C[C@@H](OC(CC)CC)[C@H](NC(C)=O)[C@@H](N)C1 [OP, (3R,4R,5 S)-4-acetamido-5-amino-3-(1-ethylepoxy)-1-cyclohexene-1-carboxylic acid ethyl ester phosphate]

Reference: publication PMC11227190, “Interaction mechanism of oseltamivir phosphate with bovine serum albumin: multispectroscopic and molecular docking study” (BMC Chemistry, 2024)
